Data as given in patent US10231971B2, “Pharmaceutical composition for preventing and treating dry eye diseases, containing imatinib as active ingredient” (AVIXGEN INC., priority 2015, dated 2019).

Legend:
[1] = tested on: keratoconjunctivitis sicca (dry eye) animal model; conditions: imatinib eye drop (0.1 mg/ml), twice a day for 1 week; FIG. 4
Experimental: White SD rats were used as an animal, and keratoconjunctivitis sicca was induced by administering 1% atropine sulfate and 0.1% benzalkonium chloride dropwise to an eye twice a day for 2 weeks.
An imatinib eye drop (0.1 mg/ml) was administered dropwise to an eye twice a day for 1 week after 7 days of administration of 1% atropine sulfate and 0.1% benzalkonium chloride.
In order to observe corneal degeneration in the keratoconjunctivitis sicca (dry eye) model, F-actin staining was performed. F-actin was stained with phalloidin labeled with a fluorescent material.

[2] = tested on: keratoconjunctivitis sicca (dry eye) animal model; assay: Corneal epithelium protection: lissamine green staining of the cornea in keratoconjunctivitis sicca model; format: in vivo, Spraque-Dawley (SD) rats
Experimental: To carry out an experiment for dry corneal epithelial damage, a dry eye animal model was constructed. 8-week-old Spraque-Dawley (SD) rats (available from Orient Bio) were used as an animal, keratoconjunctivitis sicca was induced by administering an eye drop containing 0.1% benzalkonium chloride (Sigma Aldrich) in 1% atropine sulfate (Alcon) twice a day for 2 weeks.
The imatinib eye drop (1 mg/ml) was administered dropwise to an eye twice a day for 1 week after 7 days of administration of 1% atropine sulfate and 0.1% benzalkonium chloride. To compare therapeutic effects, a 0.05% Cyclosporin eye drop (Restasis, Allergan) was used as a reference drug.
Corneal epithelial damage was identified in the keratoconjunctivitis sicca animal model by staining a surface of the cornea with a 1% lissamin green solution and observing a damaged region thereof (see FIG. 1).
Damage to corneal epithelium cells due to dryness was identified in a keratoconjunctivitis sicca (dry eye)-induced cornea by staining a dried state of the corneal epithelium cells with lissamin green (see FIG. 1). […] A stained area after staining was expressed as a percentage (%) with respect to a total corneal area.

[3] = tested on: keratoconjunctivitis sicca (dry eye) animal model; assay: Invasion of specific inflammatory cells into the cornea: LSP-1 immunostaining in keratoconjunctivitis sicca model; format: in vivo, Spraque-Dawley (SD) rats; conditions: imatinib eye drop 0.1%
Experimental: An experiment was carried out using the same administration method as that used in the animal model of Example 1, and then an inflammation inhibitory effect of imatinib on specific inflammatory cells invaded into the cornea was identified.
To identify inflammatory cells in the cornea in keratoconjunctivitis sicca (dry eye), the eye was cryosectioned, and inflammatory cells having an antigen of LSP-1 were stained and observed (See FIG. 5). Inflammation-associated cells such as lymphocytes, neutrophils, and macrophages have LSP-1 can be observed after being immunostained using an LSP-1 antibody. Inflammatory cells were observed by 0.61±0.05 in a control (a drug-non-treated group) and by 0.52±0.05 in an imatinib eye drop (0.1%) (See FIG. 6).

Cc1ccc(NC(=O)c2ccc(CN3CCN(C)CC3)cc2)cc1Nc1nccc(-c2cccnc2)n1 [imatinib]
corneal degeneration (keratinization of corneal epithelial cells, F-actin staining) [1]: not observed
lissamine green stained area as percentage of total corneal area ([2]; concentration-dependent efficacy test, 0.01% (0.1 mg/ml), vehicle control 12.8±1.98%, FIG. 3): 8.2±0.97%
lissamine green stained area as percentage of total corneal area ([2]; concentration-dependent efficacy test, 0.05% (0.5 mg/ml), vehicle control 12.8±1.98%, FIG. 3): 6.18±0.9%
lissamine green stained area as percentage of total corneal area ([2]; concentration-dependent efficacy test, 0.1% (1 mg/ml), vehicle control 12.8±1.98%, FIG. 3): 3.7±0.87%
lissamine green stained area as percentage of total corneal area ([2]; concentration-dependent efficacy test, 0.5% (5 mg/ml), vehicle control 12.8±1.98%, FIG. 3): 3.5±1.1%
lissamine green stained area as percentage of total corneal area ([2]; concentration-dependent efficacy test, 1.0% (10 mg/ml), vehicle control 12.8±1.98%, FIG. 3): 3.1±1.2%
effect on lissamine green staining when administered according to concentration ([2]; imatinib 0.01% to 1.0%, FIG. 3): concentration-dependent effect
lissamine green stained area as percentage of total corneal area ([2]; imatinib 0.1% (1 mg/ml) eye drop, twice a day for 1 week, vehicle control 11±1.26%, FIG. 2): 2.6±0.39%
effect on inflammation in keratoconjunctivitis sicca (inflammatory cell staining) [3]: had an inflammation inhibitory effect
inflammatory cells observed (LSP-1-stained cells in the cornea) ([3]; control (drug-non-treated group) 0.61±0.05, FIG. 6): 0.52±0.05
